# Read-outs that look alike come from different tables or passages of the source.
# Columns and labels:
# [1] = Alleviation of depression in HIV-1 positive subjects; assay type: in vivo, human; details: 4.3 mg/kg for 15 days; three HIV-1 positive subjects
# human prostate tumors = experiment: Established human prostate tumors implanted in mice, intramuscular treatment; assay type: in vivo; details: 100 mg/kg intramuscular, alternate days, after 5 weeks
# Method: Similar experiments were carried out where implanted human prostate tumors (2×2 mm) were allowed to become established. Eight days later, the tumor size was ≈5×5 mm. Treatment was initiated which consisted of intramuscular injections of C1 (100 mg/kg) given on alternate days. After 5 weeks of treatment, tumors were not detectable by palpation in 2 of 3 animals. […] Untreated control mice (n=3), had tumors at 5 weeks of average size of 10×9mm.
# T cells = experiment: Modulation of T cells in HIV-1 positive subjects; assay type: in vivo, human; details: 4.3 mg/kg for 15 days; one subject; before treatment 425; normal range 650-1330
# Description: Blood samples were drawn before and after on day 15 or 30 from the initiation of treatment for regular CBC profile. […] The normal range of T cells is 650-1330.
# [2] = system: human fibrosarcoma HT-1080 cells; experiment: Effect on human fibrosarcoma HT-1080 cells (trypan blue dye exclusion); assay type: cell-based; details: for viability at 25 µg/mL / viability at 50 µg/mL / viability at 100 µg/mL / viability at 150 µg/mL: HT-1080, read-out: Percent survival; for viability at 25 µg/mL: 25 μg/ml; for viability at 50 µg/mL: 50 μg/ml
# Method: Human fibrosarcoma cells were cultured in Minimum essential medium (Eagle) with non-essential amino acids and Earls balanced salt solution supplemented with 10% heat-inactivated fetal bovine serum. Cells (5×10^3 in 0.5 ml of growth medium) were plated in 16 well plates and incubated at 37° C. in a humidified atmosphere of 5% CO2 in air for 24 h. Cells were then treated with different doses of C1. Control wells received vehicle only (<0.5% ethanol in saline). After further incubation periods of 24 and 48 h, the viability of cells was determined by trypan blue dye exclusion method.
# [3] = In vivo toxicity, repeat oral dose; set-up: species or system BALB/c mice; details: for mortality: group of three mice
# Method: In preliminary repeat dose studies, a suspension of C1 in polyethylene glycol (C1 is mixed with a 2.5% solution of polyethylene glycol and homogenized in a sterile dounce homogenizer until it flows freely through a 22×11/2" with 11/4 mm ball feeding needle) was administered orally to a group of three BALB/c mice.
# [4] = system: human breast cancer MCF-7 cells; experiment: Inhibition of clonogenic growth of breast cancer cells; assay type: cell-based; details: for No. of Colonies (Mean ± S.D.): control 158.5 ± 12.2
# Method: After additional incubation periods of 24 h and 48 h, cells were washed to remove the drug and were allowed to grow at 37° C. in a CO2 incubator. After 10 days, colonies consisting of 50 or more cells were counted.
# UACC-62 = experiment: NCI tumor cell line screen (SRB assay); assay type: cell-based; set-up: activity: dose or concentration left out as unconfirmed; details: Homo sapiens, read-out: PERCENT GROWTH
# Method: (§1) The National Cancer Institute carried out the studies at the direction of the present inventor.
# (§2) In the tests, the National Cancer Institute used the SRB (sulforhodamine B) assay as described by Skehan et al., (Journal of the National Cancer Institute, 82:13, Jul. 4, 1990, 1107-1112). Briefly, the assay is as follows. TCA-fixed cells were stained for 30 minutes with 0.4% (wt/vol) SRB dissolved in 1% acetic acid. At the end of the staining period, SRB was removed and cultures were quickly rinsed four times with 1% acetic acid to remove unbound dye. The acetic acid was poured directly into the culture wells from a beaker. […] Residual wash solution was removed by sharply flicking plates over a sink, which ensured the complete removal of rinsing solution. […] After being rinsed, the cultures were air dried until no standing moisture was visible. Bound dye was solubilized with 10 mM unbuffered Tris base (pH 10.5) for 5 minutes on a gyratory shaker.
# (§3) Optical density (OD) was read in either a UVmax microtiter plate reader (Molecular Devices, Menlo Park, Calif.) or a Beckman DU-70 spectrophotometer. For maximum sensitivity, OD was measured at 564 nm. Because readings were linear with dye concentrations only below 1.8 OD units, however, suboptimal wavelengths were generally used, so that all samples in an experiment remained within the linear OD range. With most cell lines, wavelengths of approximately 490-530 nm worked well for this purpose.
# (§4) Nine different non-small cell lung carcinoma cell lines, six different colon carcinoma cell lines, six different CNS (central nervous system) carcinoma cell lines, seven different melanoma cell lines, six different ovarian carcinoma cell lines, and eight different renal carcinoma cell lines were tested.
# HT29 = experiment: NCI tumor cell line screen (SRB assay); assay type: cell-based; set-up: activity: dose or concentration left out as unconfirmed; details: Homo sapiens, HT-29, read-out: PERCENT GROWTH
# Method: as §1, §2, §3, §4
# SNB-19 = experiment: NCI tumor cell line screen (SRB assay); assay type: cell-based; set-up: activity: dose or concentration left out as unconfirmed; details: Homo sapiens, read-out: PERCENT GROWTH
# Method: as §1, §2, §3, §4
# [5] = system: Herpes simplex virus (HSV); experiment: Inactivation of Herpes simplex virus (plaque assay on Vero cells); assay type: cell-based; details: for PFU/ml: control 7.1 × 10^5
# Method: The control sample received vehicle only. After the incubation period, samples were serially diluted and 0.1 ml of each dilution and the undiluted samples were inoculated into monolayers of Vero cells (African green monkey kidney cells). Overlay medium was added and the monolayers were incubated at 37° C. After 3 days of incubation, the overlay medium was removed, and the monolayer cells were fixed with methanol and treated with Giemsa stain.
# [6] = Homo sapiens, 24 h, control 92.3 ± 3.1
# [7] = Homo sapiens, 48 h, control 92.4 ± 3.1
# [8] = Vero, 150 μg/ml, 24 h at 37° C.
compound,measurement,setting,value
"CCCCN1C(=O)CC(=O)N(CCCC)C1=S [Compound C1, 4,6(1H, 5H)-pyrimidinedione, 1,3-dibutyldihydro-2-thioxo]",symptoms reported by subjects,[1],"alleviation from lethargy, depression and an increased appetite, feeling of being happy, and desire to live"
same,tumors not detectable by palpation,human prostate tumors,2 of 3
same,T cell count after treatment,T cells,720
same,fibrosarcoma cells killed,"[2]; 25 μg/ml (lowest dose), 48 h",virtually all fibrosarcoma cells were killed
same,fibrosarcoma cells killed,"[2]; 100 μg/ml, 24 h",Virtually all fibrosarcoma cells were killed
same,fibrosarcoma cells killed,"[2]; 150 μg/ml, 24 h",Virtually all fibrosarcoma cells were killed
same,cytotoxicity at 50 µg/mL,"[2]; Homo sapiens, HT-1080, 24 h, read-out: cells killed",> 92%
same,viability at 25 µg/mL,[2]; [6],0.03 ± 0.03%
same,viability at 25 µg/mL,[2]; [7],0%
same,viability at 50 µg/mL,[2]; [6],0.03 ± 0.03%
same,viability at 50 µg/mL,[2]; [7],0%
same,viability at 100 µg/mL,"[2]; Homo sapiens, 100 μg/ml, 24 h, control 92.3 ± 3.1",0%
same,viability at 100 µg/mL,"[2]; Homo sapiens, 100 μg/ml, 48 h, control 92.4 ± 3.1",0%
same,viability at 150 µg/mL,"[2]; Homo sapiens, 150 μg/ml, 24 h, control 92.3 ± 3.1",0%
same,viability at 150 µg/mL,"[2]; Homo sapiens, 150 μg/ml, 48 h, control 92.4 ± 3.1",0%
same,tolerability and survival,"[3]; 400 mg/kg daily oral, 10 days",easily tolerated and all animals survived the treatment
same,mortality,[3]; 800 mg/kg daily oral,one animal died on day three and another died on day 10
same,mortality,[3]; 1000 mg/kg daily oral,"one animal died on day 2, another on day 5 and a third animal died on day 10"
same,mortality,[3]; 1200 mg/kg daily oral,all animals died on day 3
same,No. of Colonies (Mean ± S.D.),"[4]; 20 μg/ml, 24 hr",24.5 ± 7.8
same,No. of Colonies (Mean ± S.D.),"[4]; 20 μg/ml, 48 hr",24.5 ± 6.1
same,No. of Colonies (Mean ± S.D.),"[4]; 40 μg/ml, 24 hr",13.5 ± 5.1
same,No. of Colonies (Mean ± S.D.),"[4]; 40 μg/ml, 48 hr",11.7 ± 1.2
same,No. of Colonies (Mean ± S.D.),"[4]; 80 μg/ml, 24 hr",3.0 ± 2.2
same,No. of Colonies (Mean ± S.D.),"[4]; 80 μg/ml, 48 hr",0 ± 0
same,inhibition at 20 µg/mL,"[4]; Homo sapiens, MCF7, 20 μg/ml, read-out: Percent Reduction (of colonies)",84.5%
same,inhibition at 40 µg/mL,"[4]; Homo sapiens, MCF7, 40 μg/ml, read-out: Percent Reduction (of colonies)",92.6%
same,inhibition at 80 µg/mL,"[4]; Homo sapiens, MCF7, 80 μg/ml, read-out: Percent Reduction (of colonies)",100%
same,tumor cell clonogenic growth,[4]; under the conditions employed,virtually complete elimination of tumor cell clonogenic growth
same,activity,UACC-62; 10^-3.0 Molar,-79%
same,activity at 100 µM,UACC-62; 10^-4.0 Molar,53%
same,activity at 10 µM,UACC-62; 10^-5.0 Molar,88%
same,activity at 1 µM,UACC-62; 10^-6.0 Molar,91%
same,activity at 0.1 µM,UACC-62; 10^-7.0 Molar,94%
same,activity,HT29; 10^-3.0 Molar,-96%
same,activity at 100 µM,HT29; 10^-4.0 Molar,76%
same,activity at 1 µM,HT29; 10^-6.0 Molar,103%
same,activity at 0.1 µM,HT29; 10^-7.0 Molar,102%
same,activity,SNB-19; 10^-3.0 Molar,-54%
same,activity at 100 µM,SNB-19; 10^-4.0 Molar,90%
same,activity at 10 µM,SNB-19; 10^-5.0 Molar,109%
same,activity at 1 µM,SNB-19; 10^-6.0 Molar,99%
same,activity at 0.1 µM,SNB-19; 10^-7.0 Molar,105%
same,PFU/ml,"[5]; 30 μg/ml, 24 h at 37° C.",2.1 × 10^5 PFU/ml
same,PFU/ml,"[5]; 120 μg/ml, 24 h at 37° C.",6.5 × 10^5 PFU/ml
same,PFU/ml,"[5]; 150 μg/ml, 24 h at 37° C.",7.5 × 10^5 PFU/ml
same,log reduction at 120 µg/mL,"[5]; Vero, 24 h",2.04
same,killing at 120 µg/mL,"[5]; Vero, 24 h, read-out: % Inactivation",99%
same,killing at 30 µg/mL,"[5]; Vero, 30 μg/ml, 24 h at 37° C.",70.4%
same,log reduction at 30 µg/mL,"[5]; Vero, 30 μg/ml, 24 h at 37° C.",0.53
same,killing at 60 µg/mL,"[5]; Vero, 60 μg/ml, 24 h at 37° C.",78.9%
same,log reduction at 60 µg/mL,"[5]; Vero, 60 μg/ml, 24 h at 37° C.",0.68
same,killing at 150 µg/mL,[5]; [8],99.9%
same,log reduction at 150 µg/mL,[5]; [8],3

# — patent US5869494A, “Uses for barbituric acid analogs” (priority 1997, dated 1999)
